Results from patent publication EP0531958A1, “6-Aminoquinolones, their synthesis and their use as antibacterial agents” (MEDIOLANUM FARMACEUTICI S.P.A., priority 1991, dated 1993).
Values after ≈ are worked out from the molar mass of the structure shown. Where two headings read alike, the source gives them in different places.

Experiments:
Format in all cases: cell-based
[1] = system: Gram -; assay: MIC test, average over the 15 gram-negative test germs; details: 24 h
Protocol: (§1) As to the antibacterial activity, there was determined the Least (Minimum) Inhibiting Concentration (MIC), by working according to the following operative conditions.
(§2) There were used suspensions of test germs (5 gram-positive and 15 gram-negative) having a known titre, kept freezed at -80°C and diluted, at the time of use, in peptonized water up to a concentration of 1-2.10⁷ cfu/ml.
(§3) A few mg of the products, according to the invention were weighed sufficient for preparing parent solutions in DMSO + NaOH (1N) containing 2560 µg/ml (64µg/ml/dish). From the thus prepared parent solutions there were prepared 12 serial dilutions (1:2) down to the concentration of 1.25 µg/ml.
(§4) 0.5 ml of the different dilutions of each product were distributed on dishes containing 19.5 ml of agarized medium (TSA), maintained in a fluid state at the temperature of 50°C. After slight stirring, the dishes were made to solidify and dry under hood (laminar flow).
(§5) The MIC tests (Least or "Minimum" Inhibiting Concentration) were performed by using a Steers multiwell inoculator having 36 wells, each containing 200 µl of bacterial suspension.
(§6) After inoculation, the dishes were placed into a thermostat and checked after 24 h of incubation at 35°C.
(§7) The MIC is defined as the lowermost product concentration (µg/ml) inhibiting the visible growth of the microorganisms.

[2] = system: Gram +; assay: MIC test, average over the 5 gram-positive test germs; details: 24 h
Protocol: as §1, §2, §3, §4, §5, §6, §7

[3] = system: Escherichia coli CNUR 1; assay: MIC test, agar dilution with Steers multiwell inoculator; details: CNUR1, TSA dishes, 24 h at 35°C, read-out: Minimum Inhibiting Concentration
Protocol: as §1, §2, §3, §4, §5, §6, §7

[4] = system: Staphylococcus aureus MPR 5; assay: as above; details: MPR5, TSA dishes, 24 h at 35°C, read-out: Minimum Inhibiting Concentration
Protocol: as §1, §2, §3, §4, §5, §6, §7

[5] = system: Enterobacter cloacae OMNF 1174; assay: as above; details: OMNF1174, TSA dishes, 24 h at 35°C, read-out: Minimum Inhibiting Concentration
Protocol: as §1, §2, §3, §4, §5, §6, §7

[6] = system: Staphylococcus aureus ATCC 6538; assay: as above; details: ATCC6538, TSA dishes, 24 h at 35°C, read-out: Minimum Inhibiting Concentration
Protocol: as §1, §2, §3, §4, §5, §6, §7

[7] = system: Escherichia coli ISF 432; assay: as above; details: ISF432, TSA dishes, 24 h at 35°C, read-out: Minimum Inhibiting Concentration
Protocol: as §1, §2, §3, §4, §5, §6, §7

[8] = system: Proteus vulgaris CNUR 6; assay: as above; details: CNUR6, TSA dishes, 24 h at 35°C, read-out: Minimum Inhibiting Concentration
Protocol: as §1, §2, §3, §4, §5, §6, §7

[9] = system: Acinebacter calcoloaceticus OSMPV 1130; assay: as above; details: TSA dishes, 24 h at 35°C, read-out: Minimum Inhibiting Concentration
Protocol: as §1, §2, §3, §4, §5, §6, §7

[10] = system: Staphylococcus epidermidis HCF Berset C.; assay: as above; details: TSA dishes, 24 h at 35°C, read-out: Minimum Inhibiting Concentration
Protocol: as §1, §2, §3, §4, §5, §6, §7

[11] = system: Klebsiella pneumoniae ATCC 10031; assay: as above; details: ATCC10031, TSA dishes, 24 h at 35°C, read-out: Minimum Inhibiting Concentration
Protocol: as §1, §2, §3, §4, §5, §6, §7

[12] = system: Shighella enteritidis; assay: as above; details: TSA dishes, 24 h at 35°C, read-out: Minimum Inhibiting Concentration
Protocol: as §1, §2, §3, §4, §5, §6, §7

[13] = system: Enterobacter cloacae OMNF 1153; assay: as above; details: OMNF1153, TSA dishes, 24 h at 35°C, read-out: Minimum Inhibiting Concentration
Protocol: as §1, §2, §3, §4, §5, §6, §7

[14] = system: Streptococcus facealis LEP Br.; assay: as above; details: TSA dishes, 24 h at 35°C, read-out: Minimum Inhibiting Concentration
Protocol: as §1, §2, §3, §4, §5, §6, §7

[15] = system: Escherichia coli ATCC 8739; assay: as above; details: ATCC8739, TSA dishes, 24 h at 35°C, read-out: Minimum Inhibiting Concentration
Protocol: as §1, §2, §3, §4, §5, §6, §7

[16] = system: Pseudomonas aeruginosa ATCC 9027; assay: as above; details: ATCC9027, TSA dishes, 24 h at 35°C, read-out: Minimum Inhibiting Concentration
Protocol: as §1, §2, §3, §4, §5, §6, §7

[17] = system: Escherichia coli 120; assay: as above; details: TSA dishes, 24 h at 35°C, read-out: Minimum Inhibiting Concentration
Protocol: as §1, §2, §3, §4, §5, §6, §7

[18] = system: Pseudomonas aeruginosa CNUR 2; assay: as above; details: CNUR2, TSA dishes, 24 h at 35°C, read-out: Minimum Inhibiting Concentration
Protocol: as §1, §2, §3, §4, §5, §6, §7

[19] = system: Providencia stuardii CNUR 5; assay: as above; details: CNUR5, TSA dishes, 24 h at 35°C, read-out: Minimum Inhibiting Concentration
Protocol: as §1, §2, §3, §4, §5, §6, §7

[20] = system: Staphylococcus epidermidis CPHL A2; assay: as above; details: CPHLA2, TSA dishes, 24 h at 35°C, read-out: Minimum Inhibiting Concentration
Protocol: as §1, §2, §3, §4, §5, §6, §7

[21] = system: Escherichia coli CNUR 8; assay: as above; details: CNUR8, TSA dishes, 24 h at 35°C, read-out: Minimum Inhibiting Concentration
Protocol: as §1, §2, §3, §4, §5, §6, §7

[22] = system: Pseudomonas aeruginosa CNUR 4; assay: as above; details: CNUR4, TSA dishes, 24 h at 35°C, read-out: Minimum Inhibiting Concentration
Protocol: as §1, §2, §3, §4, §5, §6, §7

[23] = geometrical average of the MIC over the 15 Gram - strains, read-out: Geometrical Average
[24] = mean log of the MIC over the 15 Gram - strains, read-out: Log (converted)
[25] = geometrical average of the MIC over the 5 Gram + strains, read-out: Geometrical Average

| Compound | MIC [1, 23] | MIC [1, 24] | MIC ([2]; read-out: Log (converted)) | MIC [3] | MIC [4] | MIC [5] | MIC [6] | MIC [7] | MIC [8] | MIC [9] | MIC [10] | MIC [11] | MIC [12] | MIC [13] | MIC [14] | MIC [15] | MIC [16] | MIC [17] | MIC [18] | MIC [19] | further results |
| --- | --- | --- | --- | --- | --- | --- | --- | --- | --- | --- | --- | --- | --- | --- | --- | --- | --- | --- | --- | --- | --- |
| Cc1c(N2CCSCC2)c(N)cc2c(=O)c(C(=O)O)cn(C3CC3)c12 [Compound 35] | 0.863 µg/mL (≈ 2.4 µM) | 0.863 µg/mL (≈ 2.4 µM) | 0.574 µg/mL (≈ 1.6 µM) | 0.5 µg/mL (≈ 1.39 µM) | 0.25 µg/mL (≈ 0.696 µM) | 1 µg/mL (≈ 2.78 µM) | 0.25 µg/mL (≈ 0.696 µM) | 0.06 µg/mL (≈ 0.167 µM) | 64 µg/mL (≈ 178 µM) | 1 µg/mL (≈ 2.78 µM) | 1 µg/mL (≈ 2.78 µM) | 0.03 µg/mL (≈ 0.0835 µM) | 0.5 µg/mL (≈ 1.39 µM) | 0.5 µg/mL (≈ 1.39 µM) | 2 µg/mL (≈ 5.56 µM) | 0.06 µg/mL (≈ 0.167 µM) | 4 µg/mL (≈ 11.1 µM) | 0.25 µg/mL (≈ 0.696 µM) | 8 µg/mL (≈ 22.3 µM) | 1 µg/mL (≈ 2.78 µM) | MIC [2, 25]: 0.574 µg/mL; MIC [20]: 0.5 µg/mL (≈ 1.39 µM); MIC [21]: 0.25 µg/mL (≈ 0.696 µM); MIC [22]: 64 µg/mL (≈ 178 µM) |
| CN1CCN(c2nc3c(cc2N)c(=O)c(C(=O)O)cn3C2CC2)CC1 [Compound 40, chlorhydrate of the 6-amino-1-cyclopropyl-7-(4-methyl-1-piperazinyl)-1,4-dihydro-4-oxo-1,8-naphthyridine carboxylic acid] | 0.466 µg/mL | 0.466 µg/mL | 6.07 µg/mL | 0.12 µg/mL | 4 µg/mL | 0.12 µg/mL | 4 µg/mL | 0.03 µg/mL | 64 µg/mL | 2 µg/mL | 4 µg/mL | 0.03 µg/mL | 0.12 µg/mL | 0.12 µg/mL | 32 µg/mL | 0.12 µg/mL | 2 µg/mL | 0.06 µg/mL | 4 µg/mL | 2 µg/mL | MIC [2, 25]: 6.06 µg/mL; MIC [20]: 4 µg/mL; MIC [21]: 0.06 µg/mL; MIC [22]: 64 µg/mL |
| CN1CCN(c2nc3c(c(N)c2N)c(=O)c(C(=O)O)cn3C2CC2)CC1 [Compound 42] | 1.37 µg/mL (≈ 3.83 µM) | 1.37 µg/mL (≈ 3.82 µM) | 4 µg/mL (≈ 11.2 µM) | 1 µg/mL (≈ 2.79 µM) | 2 µg/mL (≈ 5.58 µM) | 1 µg/mL (≈ 2.79 µM) | 2 µg/mL (≈ 5.58 µM) | 0.06 µg/mL (≈ 0.167 µM) | 64 µg/mL (≈ 179 µM) | 4 µg/mL (≈ 11.2 µM) | 4 µg/mL (≈ 11.2 µM) | 0.06 µg/mL (≈ 0.167 µM) | 0.5 µg/mL (≈ 1.4 µM) | 1 µg/mL (≈ 2.79 µM) | 16 µg/mL (≈ 44.6 µM) | 0.06 µg/mL (≈ 0.167 µM) | 8 µg/mL (≈ 22.3 µM) | 0.25 µg/mL (≈ 0.698 µM) | 16 µg/mL (≈ 44.6 µM) | 4 µg/mL (≈ 11.2 µM) | MIC [20]: 4 µg/mL (≈ 11.2 µM); MIC [21]: 0.25 µg/mL (≈ 0.698 µM); MIC [22]: 128 µg/mL (≈ 357 µM) |
| CN1CCN(c2cc3c(cc2N)c(=O)c(C(=O)O)cn3C(C)(C)C)CC1 [Compound 44, 6-amino-1-terbutyl-7-(4-methyl-1-piperazinyl)-1,4-dihidro-4-oxo-quinoline carboxylic acid] | 1.73 µg/mL (≈ 4.82 µM) | 1.73 µg/mL (≈ 4.81 µM) | 4 µg/mL (≈ 11.2 µM) | 1 µg/mL (≈ 2.79 µM) | 2 µg/mL (≈ 5.58 µM) | 1 µg/mL (≈ 2.79 µM) | 2 µg/mL (≈ 5.58 µM) | 0.06 µg/mL (≈ 0.167 µM) | 128 µg/mL (≈ 357 µM) | 4 µg/mL (≈ 11.2 µM) | 4 µg/mL (≈ 11.2 µM) | 0.06 µg/mL (≈ 0.167 µM) | 1 µg/mL (≈ 2.79 µM) | 2 µg/mL (≈ 5.58 µM) | 32 µg/mL (≈ 89.3 µM) | 0.06 µg/mL (≈ 0.167 µM) | 4 µg/mL (≈ 11.2 µM) | 0.5 µg/mL (≈ 1.39 µM) | 32 µg/mL (≈ 89.3 µM) | 4 µg/mL (≈ 11.2 µM) | MIC [20]: 2 µg/mL (≈ 5.58 µM); MIC [21]: 0.5 µg/mL (≈ 1.39 µM); MIC [22]: 128 µg/mL (≈ 357 µM) |
